US20260097045A1, “ANTIMICROBIAL COMBINATIONS” (Helperby Therapeutics Limited, priority 2022, published 2026)
Residues, ends and D or L forms follow the SMILES beside them.

Columns and labels:
Assay type in all cases: cell-based
[1] = tested on: K. pneumoniae CPE; experiment: chequerboard assay (OD600, FIC) against K. pneumoniae CPE; settings: agent alone
[2] = tested on: P. aeruginosa; experiment: chequerboard assay (percentage of positive control, MIC, FIC) against P. aeruginosa; settings: for MIC: Pseudomonas aeruginosa, read-out: MIC Monotherapy (X)
Source text: (§1) FICI or fractional inhibitory concentration index is the sum of the FICs of each antimicrobial when used in combination. The FIC or fractional inhibitory concentration of an antimicrobial in a combination, is the MIC of the antimicrobial in the combination divided by the MIC of the same antimicrobial when used alone. Minimum inhibitory concentrations are defined in the art as the lowest concentration of an antimicrobial that will inhibit the visible growth of a microorganism after overnight incubation.
(§2) In the method for a 3-mer combination, one antibiotic was “fixed” as part of a backbone whilst the two other antibiotics were varied over a doubling concentration scale beginning at the MIC (×1) for the effective dose in monotherapy against the organism being tested. The ΣFIC was then calculated as shown below. In the method for a 4-mer combination, two antibiotics were “fixed” as part of a backbone whilst the two other antibiotics were varied over a doubling concentration scale beginning at the MIC (×1) for the effective dose in monotherapy against the organism being tested.
(§3) The ΣFIC was divided by “0.5/n” where n=number of antimicrobials in the combination to provide FIC. The inventors opted for this expression because it more closely aligns with the 2-mer synergy levels. The same FIC scale as used for 2-mers was applied: synergy is observed when FIC is <0.5. An “Additive” effect is observed when FIC is 0.5 to <1. Indifference is observed when FIC is 1 to <2. Antagonism is observed when FIC is 2 to 4.
(§4) The antimicrobial agents were sourced from commercially available sources. They were prepared by being weighed and dissolved in water, PBS, DMSO or acidified water to a final concentration from 1-10 mg/mL. Antimicrobial solutions were diluted to 10× highest concentration used in the experiment and subsequently diluted 2× over a series not exceeding 11 serial dilutions. These left the operator with a maximum of 12 different, descending concentrations of the chosen antimicrobials.
(§5) The bacteria were obtained from Ninewells Hospital and Medical School in Dundee, Scotland. They were obtained as patient strains and characterised by Vitek 2 screening. To prepare for the Examples below, the bacteria were grown overnight in Mueller Hinton Cation adjusted broth or until confluent in media with or without supplements. The bacteria were measured for OD600 and readings of <0.25 were returned to the incubator.
(§6) All data herein was produced using the same chequerboard assay.
(§7) 20 μL of antibiotic A (backbone), at a single dilution, was pipetted into all wells of a 96-well plate to be used.
(§8) 20 μL of the lowest concentration of antibiotic B (first variable) was pipetted into column 1 of the 96-well plate. The second concentration (2-fold more concentrate) was pipetted into column 2. This process was repeated until all concentrations of antibiotic B to be used were complete.
(§9) 20 μL of the lowest concentration of antibiotic C (second variable) were pipetted into row A of the 96-well plate. The second concentration (2-fold more concentrate) was pipetted into row B. This process was repeated until all concentrations of antibiotic C to be used were complete.
(§10) 120 μL of sterile media (BHI/MHB2) was added.
(§11) 20 ul of prepared bacterial culture was added.
(§12) Plates were sealed with lids and left to incubate for 16 hours, overnight.
(§13) Plates were read at OD600 in a 96-well plate reader. These are the values reported in the chequerboards below.
(§14) As a tri-mer combination, two antibiotic concentrations were varied while one remained constant, the latter is the “backbone”. For the 4-mer combination, two antibiotic concentrations were varied while two remained constant, the latter is the “backbone”. This method is explained above along with the calculation of the FICI and the indicative value for synergy, indifference and antagonism.
The method was identical to Comparative Example 1, except the isolate was P. aeruginosa.

[3] = tested on: A. baumannii; experiment: chequerboard assay (percentage of positive control, MIC, FIC) against A. baumannii; settings: for concentration up to which the isolate was resistant to the agent / MIC: A. baumannii isolate, agent alone; for MIC: Acinetobacter baumannii, read-out: MIC Monotherapy (X)
Source text: as §1, §2, §3, §4, §5, §6, §7, §8, §9, §10, §11, §12, §13, §14
The method was identical to Comparative Example 1. The isolate was A. baumannii.

[4] = tested on: ESBL E. coli; experiment: chequerboard assay (OD600, MIC, FIC) against ESBL E. coli; settings: for MIC: Escherichia coli, agent alone, ESBL E. coli isolate, read-out: MIC Monotherapy (X)
Source text: as §1, §2, §3, §4, §5, §6, §7, §8, §9, §10, §11, §12, §13, §14

[5] = tested on: Methicillin-resistant Staphylococcus aureus (MRSA); experiment: chequerboard assay (percentage of positive control, MIC, FIC) against MRSA; settings: for MIC: Staphylococcus aureus, agent alone, MRSA isolate, read-out: MIC Monotherapy (X)
Source text: as §1, §2, §3, §4, §5, §6, §7, §8, §9, §10, §11, §12, §13, §14
The method was identical to Comparative Example 1. The isolate was Methicillin-resistant Staphylococcus aureus (MRSA).

[6] = agent alone, P. aeruginosa isolate
[7] = agent within AZT + ceftazidime + colistin (Example 17)
[8] = agent within AZT + fosfomycin + colistin (Example 15)
[9] = agent within AZT + meropenem + colistin + fosfomycin (Example 14)
[10] = agent within zidovudine + meropenem + colistin + ceftazidime (Example 13)
[11] = agent within zidovudine + meropenem + colistin + fosfomycin (Example 14)
[12] = agent within AZT + colistin + ceftazidime (Example 17)
[13] = agent within ceftazidime + AZT + doxycycline (Example 3)
[14] = agent within AZT + ceftazidime + meropenem (Example 16)
[15] = agent within ceftazidime + levofloxacin + fosfomycin (Example 18)
[16] = agent within ceftazidime + levofloxacin + meropenem (Example 19)
[17] = P. aeruginosa isolate, agent alone

| Structure (SMILES) | MIC [2, 6] [µg/mL] | MIC combination therapy (Y) [2, 7] [µg/mL] | MIC combination therapy (Y) [2, 8] [µg/mL] | Ratio Y:X [2, 8] | MIC combination therapy (Y) [2, 10] [µg/mL] | MIC combination therapy (Y) [2, 11] [µg/mL] | MIC [3] [µg/mL] | MIC combination therapy (Y) [3, 12] [µg/mL] | MIC combination therapy (Y) [3, 8] [µg/mL] | Ratio Y:X [3, 8] | MIC combination therapy (Y) [4, 13] [µg/mL] | MIC combination therapy (Y) [2, 14] [µg/mL] | MIC combination therapy (Y) [5, 15] [µg/mL] | MIC combination therapy (Y) [5, 16] [µg/mL] | MIC [5] [µg/mL] | also measured |
| --- | --- | --- | --- | --- | --- | --- | --- | --- | --- | --- | --- | --- | --- | --- | --- | --- |
| CCC(C)CCCC(=O)N[C@@H](CCN)C(=O)N[C@H](C(=O)N[C@@H](CCN)C(=O)N[C@H]1CCNC(=O)[C@H]([C@@H](C)O)NC(=O)[C@H](CCN)NC(=O)[C@H](CCN)NC(=O)[C@H](CC(C)C)NC(=O)[C@@H](CC(C)C)NC(=O)[C@H](CCN)NC1=O)[C@@H](C)O (stereo partly drawn) (HELM PEPTIDE1{[CCC(C)CCCC(=O)[*:2]].[Dab].T.[Dab].[Dab].[Dab].[dL].L.[Dab].[Dab].T}$PEPTIDE1,PEPTIDE1,5:R3-11:R2$$$V2.0) | 512 | 4 | 0.5 | 0.000977 | 2 | 32 | 128 | 32 | 0.5 | 0.003906 |  |  |  |  |  | concentration at which the isolate was resistant to the agent [1]: ≥ 8 mg/L; Ratio Y:X [2, 7]: 0.007813; Ratio Y:X ([2]; agent within AZT + meropenem + colistin + ceftazidime (Example 13)): 0.003906; Ratio Y:X [2, 9]: 0.0625; concentration up to which the isolate was resistant to the agent [3]: 64 mg/L; Ratio Y:X [3, 12]: 0.25 |
| CC(C)(O/N=C(\C(=O)N[C@@H]1C(=O)N2C(C(=O)[O-])=C(C[n+]3ccccc3)CS[C@H]12)c1csc(N)n1)C(=O)O [Ceftazidime] | 512 | 1 |  |  | 1 |  | 512 | 32 |  |  | 4 | 0.5 | 16 | 1 |  | concentration at which the isolate was resistant to the agent [1]: 4 mg/L |
| C[C@H]1c2cccc(O)c2C(=O)C2=C(O)[C@]3(O)C(=O)C(C(N)=O)=C(O)[C@@H](N(C)C)[C@@H]3[C@@H](O)[C@@H]21 [Doxycycline] |  |  |  |  |  |  |  |  |  |  | 0.5 |  |  |  |  | MIC [4]: 1 µg/mL |
| C[C@@H]1O[C@@H]1P(=O)(O)O [Fosfomycin] | 256 |  | 16 | 0.125 |  | 4 | 256 |  | 32 | 0.125 |  |  | 2 |  | 16 | concentration up to which the isolate was resistant to the agent [2, 17]: 64 mg/L; MIC Monotherapy (X) [2, 6]: 128 µg/mL; Ratio Y:X [2, 9]: 0.01562; concentration up to which the isolate was resistant to the agent [3]: 128 mg/L; Ratio Y:X [5, 15]: 0.125 |
| C[C@H]1COc2c(N3CCN(C)CC3)c(F)cc3c(=O)c(C(=O)O)cn1c23 [Levo, Levofloxacin] |  |  |  |  |  |  |  |  |  |  |  |  | 0.125 | 0.25 | 1 | Ratio Y:X [5, 15]: 0.125; Ratio Y:X [5, 16]: 0.25 |
| C[C@@H](O)[C@H]1C(=O)N2C(C(=O)O)=C(S[C@@H]3CN[C@H](C(=O)N(C)C)C3)[C@H](C)[C@H]12 [Meropenem] | 32 |  |  |  | 2 | 4 |  |  |  |  |  | 4 |  | 4 | 32 | concentration up to which the isolate was resistant to the agent [2, 17]: 64 mg/L |
| Cc1cn([C@H]2C[C@H](N=[N+]=[N-])[C@@H](CO)O2)c(=O)[nH]c1=O [Zidovudine, 1-[(2R, 4S, 5S)-4-Azido-5-(hydroxymethyl)oxolan-2-yl]-5-methylpyrimidine-2,4-dione] | 512 | 2 | 0.5 | 0.000977 | 1 | 1 | 512 | 4 | 0.5 | 0.000977 | 0.125 | 8 |  |  |  | MIC [4]: 1 µg/mL; Ratio Y:X [4, 13]: 0.125; Ratio Y:X [2, 7]: 0.003906; Ratio Y:X [2, 14]: 0.01562; Ratio Y:X [2, 10]: 0.001953; Ratio Y:X [2, 11]: 0.001953; Ratio Y:X [3, 12]: 0.007813 |
